According to patent US20090047246A1, “NOVEL INHIBITORS OF HEPATITIS C VIRUS REPLICATION” (InterMune, Inc., priority 2007, published 2009):
Like-named read-outs stand apart in the source and are kept apart here.

Target: T1, HCV NS3 helicase (Hepatitis C virus genotype 1b, UniProt P26663)
T1 construct: full-length NS3 (1-631), purified at Array BioPharma
Assay: HCV Helicase Prompt FRET Assay (Example A)
Assay type: biochemical
Details: read-out: IC50 Activity
Outline: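 Full-length NS3 (1-631), 5 or 6 nM, preincubated 5 min with compound, then unwinds 50 nM FAM/BHQ-1 duplex substrate with 250 nM capture strand and 300 μM ATP in 25 mM MOPS pH 7.0, 1.5 mM MgCl2, 0.005% Triton X-100, 2% DMSO. Fluorescence (485/535 nm) followed ~30 min at room temperature; IC50 from initial rates by 4- or 5-parameter fit.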

[1] = Table 32, compounds made using Schemes 46-49
[2] = Table 21, compounds made using Scheme 28
[3] = HCV NS3 helicase, tables do not say whether Example A or Example B assay
[4] = Table 36, compounds made using Scheme 54

T1 sequence (P26663 1027-1657): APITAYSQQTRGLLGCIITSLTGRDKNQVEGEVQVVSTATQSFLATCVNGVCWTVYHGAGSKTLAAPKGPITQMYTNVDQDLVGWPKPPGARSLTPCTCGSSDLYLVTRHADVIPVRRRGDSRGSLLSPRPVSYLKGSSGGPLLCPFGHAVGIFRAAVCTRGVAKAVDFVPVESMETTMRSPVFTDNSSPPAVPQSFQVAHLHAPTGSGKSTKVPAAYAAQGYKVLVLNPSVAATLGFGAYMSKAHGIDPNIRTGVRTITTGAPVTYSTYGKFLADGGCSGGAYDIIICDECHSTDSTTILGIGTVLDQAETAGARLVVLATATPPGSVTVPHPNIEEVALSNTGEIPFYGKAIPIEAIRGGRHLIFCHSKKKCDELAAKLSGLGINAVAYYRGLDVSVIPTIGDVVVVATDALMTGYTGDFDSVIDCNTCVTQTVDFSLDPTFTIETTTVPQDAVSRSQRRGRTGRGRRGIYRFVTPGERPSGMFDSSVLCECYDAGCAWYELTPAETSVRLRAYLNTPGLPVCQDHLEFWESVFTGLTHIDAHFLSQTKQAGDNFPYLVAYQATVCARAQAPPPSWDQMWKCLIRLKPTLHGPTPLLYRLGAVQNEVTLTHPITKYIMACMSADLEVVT

CC(C)(C)OC(=O)Nc1ncc(-c2ccc3c(CC(=O)O)cn(Cc4csc5ccc(Cl)cc45)c3c2)s1 [Example 657]
IC50 [1]: < 10 µM

COc1ccc(N(C)c2ccc(Cn3cc(CC(=O)O)c4ccccc43)cc2)cc1OC [Example 579]
IC50 [2]: 10 to 50 µM

O=C(O)Cc1cn(Cc2ccc(Oc3ccc(Cl)cc3Cl)cc2)c2ccccc12 [Example 589]
IC50 [3]: < 10 µM

O=C(Cc1cn(Cc2cccc(OCc3ccccc3)c2)c2ccc(OCc3ccccc3)cc12)NS(=O)(=O)c1ccccc1 [Example 195]
IC50 [3]: < 10 µM

O=C(O)Cc1cn(Cc2cccc(Oc3cccc(Cl)c3)c2)c2ccccc12 [Example 476]
IC50 [3]: < 10 µM

O=C(O)Cc1c(C(=O)c2cccc(-c3cccc(Cl)c3Cl)c2)[nH]c2ccccc12 [Example 230]
IC50 [3]: < 10 µM

COc1ccc(Oc2cccc(Cn3cc(CC(=O)O)c4ccccc43)c2)cc1OC [Example 491]
IC50 [3]: 10 to 50 µM

O=C(O)Cc1cn(Cc2ccc(Oc3cccc(C(F)(F)F)c3)cc2)c2ccccc12 [Example 503]
IC50 [3]: < 10 µM

O=C(O)Cc1c(Cc2ccc(-c3ccccc3Cl)cc2)[nH]c2ccc(Br)cc12 [Example 739]
IC50 [3]: 10 to 50 µM

Cc1ccccc1CN(C)c1ccc(-n2cc(CC(=O)O)c3ccccc32)cc1 [Example 181]
IC50 [3]: < 10 µM

Nc1nnc(-c2ccc3c(CC(=O)O)cn(Cc4csc5ccc(Cl)cc45)c3c2)s1 [Example 660]
IC50 [1]: 10 to 50 µM

CC(C)c1ccc(Cn2c(C#N)c(CC(=O)O)c3ccccc32)cc1 [Example 664]
IC50 [1]: 10 to 50 µM

COc1cc(Cl)cc2c(Cn3cc(CC(=O)O)c4ccc(-c5cc(N)cc(N)c5)cc43)csc12 [Example 722]
IC50 [4]: 10 to 50 µM

CN(c1cccc(Cn2cc(CC(=O)O)c3ccccc32)c1)c1cccc(F)c1F [Example 533]
IC50 [3]: < 10 µM

Cc1cc([N+](=O)[O-])ccc1-n1cc(CC(=O)O)c2ccccc21 [Example 377]
IC50 [3]: > 50 µM

Nc1cc(N)cc(-c2ccc3c(CC(=O)O)cn(Cc4nc5ccccc5s4)c3c2)c1 [Example 735]
IC50 [4]: > 50 µM

CC(C)(c1nnn[nH]1)c1cn(Cc2csc3ccc(Cl)cc23)c2ccccc12 [Example 216]
IC50 [3]: 10 to 50 µM

Cc1ccc2sc(-n3cc(CC(=O)O)c4ccccc43)cc2c1 [Example 146]
IC50 [3]: < 10 µM

CN(c1ccc(Cn2cc(CC(=O)O)c3ccccc32)cc1)c1cccc(F)c1 [Example 557]
IC50 [2]: < 10 µM

C=COc1ccc2c(CC(=O)O)cn(Cc3csc4ccc(Cl)cc34)c2c1 [Example 352]
IC50 [3]: < 10 µM

O=C(O)C(Cc1ccccc1)c1cn(Cc2csc3ccc(Cl)cc23)c2cc(OCc3ccccc3)ccc12 (stereo not drawn) [Example 351]
IC50 [3]: < 10 µM

CC(C)c1cccc(-c2cccc(C(=O)c3[nH]c4ccccc4c3CC(=O)O)c2)c1 [Example 227]
IC50 [3]: < 10 µM

O=C(O)Cc1cn(Cc2ccc(Cl)c(Cl)c2)c2ccc(Br)cc12 [Example 110]
IC50 [3]: 10 to 50 µM

CCOC(=O)Cc1cn(Cc2csc3c(Cl)c(Cl)ccc23)c2cc(Br)ccc12 [Example 779]
IC50 [4]: > 50 µM

O=C(O)Cc1c(Cc2cccc(-c3ccc(Cl)c(Cl)c3)c2)oc2ccccc12 [Example 309]
IC50 [3]: < 10 µM

CCOC(=O)Cc1cn(Cc2ccc(Oc3ccc(C(F)(F)F)cc3)cc2)c2cc(-c3cccc(OC(C)=O)c3)ccc12 [Example 606]
IC50 [3]: 10 to 50 µM

CCOc1ccc2c(CC(=O)O)cn(Cc3csc4ccc(Cl)cc34)c2c1 [Example 349]
IC50 [3]: 10 to 50 µM

O=C(O)Cc1cn(Cc2cccc(-c3cccc(Cl)c3)c2)c2ccc(OCc3ccccc3)cc12 [Example 129]
IC50 [3]: < 10 µM

Nc1cc(-c2ccc3c(CC(=O)O)cn(Cc4csc5ccc(Cl)cc45)c3c2)ccn1 [Example 747]
IC50 [3]: 10 to 50 µM

O=C(O)Cc1cn(Cc2ccc(-c3ccccc3)cc2)c2ccc(Br)cc12 [Example 109]
IC50 [3]: < 10 µM

O=C(O)Cc1c(C(=O)c2ccc(-c3c(Cl)cccc3Cl)cc2)[nH]c2ccccc12 [Example 273]
IC50 [3]: 10 to 50 µM

Nc1cccc(-c2ccc3c(CC(=O)O)cn(Cc4csc5ccc(Cl)cc45)c3c2)c1 [Example 363]
IC50 [3]: < 10 µM

CSc1cccc(-c2cccc(C(=O)c3[nH]c4ccccc4c3CC(=O)O)c2)c1 [Example 228]
IC50 [3]: 10 to 50 µM
